ChEMBL document CHEMBL1201862, “PubChem BioAssay data set” (2004)
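Following 48 hours of exposure in 96-well plates, responses at five concentrations were used to interpolate endpoints linearly. GI50 marks 50% less growth.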 Activity calls are given as the source filed them. No stated cut-off is given here; in the data, active = GI50 up to about 1.1 µM and inactive = higher.

Experiments:
Test in all cases: NCI tumour cell line growth inhibition, 48 h
SN12C = tested on: SN12C
COLO 205 = tested on: COLO 205
SW-620 = tested on: SW-620
OVCAR-4 = tested on: OVCAR-4
NCI-H226 = tested on: NCI-H226
A498 = tested on: A498
SF-295 = tested on: SF-295
OVCAR-5 = tested on: OVCAR-5
MDA-MB-231 = tested on: MDA-MB-231
NCI-H522 = tested on: NCI-H522
PC-3 = tested on: PC-3
SNB-75 = tested on: SNB-75
DU-145 = tested on: DU-145
TK-10 = tested on: TK-10
UO-31 = tested on: UO-31
EKVX = tested on: EKVX
M14 = tested on: M14
CCRF-CEM = tested on: CCRF-CEM
OVCAR-3 = tested on: OVCAR-3

| SMILES | GI50 (SN12C) | GI50 (COLO 205) | GI50 (SW-620) | GI50 (OVCAR-4) | GI50 (NCI-H226) | GI50 (A498) | GI50 (SF-295) | GI50 (OVCAR-5) | GI50 (MDA-MB-231) | GI50 (NCI-H522) | GI50 (PC-3) | GI50 (SNB-75) | GI50 (DU-145) | GI50 (TK-10) | GI50 (UO-31) | GI50 (EKVX) | GI50 (M14) | GI50 (CCRF-CEM) | GI50 (OVCAR-3) |
| --- | --- | --- | --- | --- | --- | --- | --- | --- | --- | --- | --- | --- | --- | --- | --- | --- | --- | --- | --- |
| c1ccc(-c2cnc(-c3ccc(-c4ncc(-c5ccccc5)o4)cc3)o2)cc1 | > 100 µM (inactive) | > 100 µM (inactive) | > 100 µM (inactive) | > 100 µM (inactive) | > 100 µM (inactive) | > 100 µM (inactive) | > 100 µM (inactive) | > 100 µM (inactive) | > 100 µM (inactive) | > 100 µM (inactive) | > 100 µM (inactive) | 56.5 µM (inactive) | > 100 µM (inactive) | > 100 µM (inactive) | > 100 µM (inactive) | > 100 µM (inactive) | > 100 µM (inactive) | > 100 µM (inactive) | > 100 µM (inactive) |
| CC(C)(Oc1ccc(-c2cccc3ccccc23)cc1)C(=O)O | 85.1 µM (inactive) | 71 µM (inactive) | > 100 µM (inactive) | > 100 µM (inactive) | > 100 µM (inactive) | > 100 µM (inactive) | 60.4 µM (inactive) | > 100 µM (inactive) | > 100 µM (inactive) | > 100 µM (inactive) | > 100 µM (inactive) | > 100 µM (inactive) | > 100 µM (inactive) | > 100 µM (inactive) | > 100 µM (inactive) | > 100 µM (inactive) | > 100 µM (inactive) | 6.22 µM (inactive) | > 100 µM (inactive) |
| c1ccc(CSc2nc(N3CCOCC3)c3cn[nH]c3n2)cc1 | 13.4 µM (inactive) | 12.6 µM (inactive) | 25.9 µM (inactive) | 40.7 µM (inactive) | 17 µM (inactive) | 5.71 µM (inactive) | 24.4 µM (inactive) | 22.3 µM (inactive) | 17 µM (inactive) | 15.6 µM (inactive) | 13.4 µM (inactive) | 30.4 µM (inactive) | 26.2 µM (inactive) | 18.5 µM (inactive) | 11.6 µM (inactive) | 16.4 µM (inactive) | 23.6 µM (inactive) | 0.0438 µM (active) | 27.7 µM (inactive) |
| CN1C(=O)c2c(ccc3c2OCO3)C2C(O)Cc3cc4c(cc3C21)OCO4 (stereo unspecified) | 4.15 µM (inactive) | 3.88 µM (inactive) | 3.79 µM (inactive) | > 100 µM (inactive) | 2.15 µM (inactive) | 3.18 µM (inactive) | 1.71 µM (inactive) | > 100 µM (inactive) | 3.38 µM (inactive) | 2.87 µM (inactive) | 2.58 µM (inactive) | 1.89 µM (inactive) | 3.65 µM (inactive) | 7.8 µM (inactive) | 6.37 µM (inactive) | 3.28 µM (inactive) | 5.78 µM (inactive) | 3.37 µM (inactive) | 5.2 µM (inactive) |
| CC(=O)O[C@@H]1CC[C@@]2(C)C(CC[C@H]3[C@@H]4CC[C@H]([C@H](C)CCc5nc6cc(C)ccc6[nH]5)[C@@]4(C)CC[C@@H]32)C1 (stereo partly specified) | 41.5 µM (inactive) | 24.4 µM (inactive) | > 100 µM (inactive) | 9.77 µM (inactive) | 9.38 µM (inactive) | 92.7 µM (inactive) | 12 µM (inactive) | > 100 µM (inactive) | 18 µM (inactive) | 16.7 µM (inactive) | 9.53 µM (inactive) | 6.04 µM (inactive) | 45.7 µM (inactive) | > 100 µM (inactive) | 6.38 µM (inactive) | 9.64 µM (inactive) | 16.1 µM (inactive) | 3.44 µM (inactive) | 20.9 µM (inactive) |
| CCOC(=O)c1nc2cc(F)c(N3CCOCC3)cc2[nH]c1=O | > 100 µM (inactive) | > 100 µM (inactive) | > 100 µM (inactive) | > 100 µM (inactive) | 90.8 µM (inactive) | > 100 µM (inactive) | > 100 µM (inactive) | > 100 µM (inactive) | > 100 µM (inactive) | 76 µM (inactive) | > 100 µM (inactive) | > 100 µM (inactive) | > 100 µM (inactive) | > 100 µM (inactive) | 65.3 µM (inactive) | 13.9 µM (inactive) | > 100 µM (inactive) | 96.4 µM (inactive) | > 100 µM (inactive) |
| Cc1cc2c(cc1Cl)SC(NNc1cnc3ccccc3n1)=NS2(=O)=O | 88.3 µM (inactive) | 49.7 µM (inactive) | 67.8 µM (inactive) | 56.8 µM (inactive) | 44.4 µM (inactive) | 22.8 µM (inactive) | 29.9 µM (inactive) | > 100 µM (inactive) | 61 µM (inactive) | > 100 µM (inactive) | 35.4 µM (inactive) | 72.3 µM (inactive) | > 100 µM (inactive) | > 100 µM (inactive) | 30.4 µM (inactive) | > 100 µM (inactive) | 74.1 µM (inactive) | 46.8 µM (inactive) | 47.4 µM (inactive) |
| CCOC(=O)C(=CNc1ccc(N(C2=NCC(C)S2)c2ccc(F)c(Cl)c2)cc1)C(=O)OCC (stereo unspecified) | 17.9 µM (inactive) | 17.8 µM (inactive) | 20.8 µM (inactive) | 24.8 µM (inactive) | 18.1 µM (inactive) | 21.9 µM (inactive) | 25.4 µM (inactive) | 19.6 µM (inactive) | 14.5 µM (inactive) | 15.7 µM (inactive) | 22.4 µM (inactive) | 20.4 µM (inactive) | 17.6 µM (inactive) | 21.8 µM (inactive) | 18.1 µM (inactive) | 19.5 µM (inactive) | 18.9 µM (inactive) | 7.93 µM (inactive) | 20.9 µM (inactive) |
| CC(C)OC1=C(CC2(C)OCCO2)C(=O)C12OCCO2 | > 100 µM (inactive) | > 100 µM (inactive) | > 100 µM (inactive) | > 100 µM (inactive) | > 100 µM (inactive) | > 100 µM (inactive) | > 100 µM (inactive) | > 100 µM (inactive) | > 100 µM (inactive) | 40.4 µM (inactive) | > 100 µM (inactive) | > 100 µM (inactive) | > 100 µM (inactive) | > 100 µM (inactive) | > 100 µM (inactive) | > 100 µM (inactive) | > 100 µM (inactive) | > 100 µM (inactive) | > 100 µM (inactive) |
| CS(=O)(=O)OCCN(CCOS(C)(=O)=O)c1ccc(/C=N/c2cccc(Cl)c2)cc1 | 1.4 µM (inactive) | 0.811 µM (active) | 12.8 µM (inactive) | 13.5 µM (inactive) | 2.06 µM (inactive) | 5.38 µM (inactive) | 1.46 µM (inactive) | 2.95 µM (inactive) | 11.5 µM (inactive) | 0.724 µM (active) | 24.5 µM (inactive) | 2.11 µM (inactive) | 1.27 µM (inactive) | 2.19 µM (inactive) | 1.6 µM (inactive) | 7.36 µM (inactive) | 14.5 µM (inactive) | 1.82 µM (inactive) | 12.1 µM (inactive) |
| CC(=O)Nc1ccc2c(C)c3c(nc2n1)[nH]c1ccccc13 | 30.5 µM (inactive) | 17.2 µM (inactive) | 37.1 µM (inactive) | 38.7 µM (inactive) | 23.4 µM (inactive) | 60.7 µM (inactive) | 34.3 µM (inactive) | 51.4 µM (inactive) | 35.1 µM (inactive) | 20 µM (inactive) | 27.2 µM (inactive) | 22.1 µM (inactive) | 33.6 µM (inactive) | 55.5 µM (inactive) | 24.5 µM (inactive) | 23.1 µM (inactive) | 25.4 µM (inactive) | 30.6 µM (inactive) | 23.9 µM (inactive) |
| O=C1CCC2C(O)c3cc4c(cc3C(c3ccc5c(c3)OCO5)N12)OCO4 (stereo unspecified) | 76 µM (inactive) | > 100 µM (inactive) | > 100 µM (inactive) | > 100 µM (inactive) | 67.9 µM (inactive) | > 100 µM (inactive) | 49.2 µM (inactive) | > 100 µM (inactive) | > 100 µM (inactive) | 89.5 µM (inactive) | > 100 µM (inactive) | 16.3 µM (inactive) | > 100 µM (inactive) | > 100 µM (inactive) | 59.7 µM (inactive) | > 100 µM (inactive) | > 100 µM (inactive) | > 100 µM (inactive) | > 100 µM (inactive) |
| CC(=O)N(CCCCNC(=O)C(F)(F)F)CCCNC(=O)C(F)(F)F | > 100 µM (inactive) | > 100 µM (inactive) | > 100 µM (inactive) | > 100 µM (inactive) | > 100 µM (inactive) | > 100 µM (inactive) | > 100 µM (inactive) | > 100 µM (inactive) | > 100 µM (inactive) | > 100 µM (inactive) | > 100 µM (inactive) | > 100 µM (inactive) | > 100 µM (inactive) | > 100 µM (inactive) | > 100 µM (inactive) | > 100 µM (inactive) | > 100 µM (inactive) | > 100 µM (inactive) | > 100 µM (inactive) |
| c1cc2c(cc1C1=NCCN1)c1cc(C3=NCCN3)ccc1n2CC1CCCCC1 | 14 µM (inactive) | 1.74 µM (inactive) | 20.4 µM (inactive) | 22.5 µM (inactive) | 12.3 µM (inactive) | > 100 µM (inactive) | 32.1 µM (inactive) | 22.1 µM (inactive) | 16.6 µM (inactive) | 4.94 µM (inactive) | 21.5 µM (inactive) | 11.6 µM (inactive) | 18.1 µM (inactive) | 51.3 µM (inactive) | 81.3 µM (inactive) | 14.1 µM (inactive) | 33.6 µM (inactive) | 11.5 µM (inactive) | 21.2 µM (inactive) |
